Results reported in patent publication US20220143224A1, “MRI CONTRAST AGENT FOR USE IN THE DIAGNOSIS OF EARLY CHANGES IN THE ENDOTHELIUM OF BLOOD VESSELS” (UNIWERSYTET JAGIELLONSKI, priority 2019, published 2022).

Experiments:
[1] = tested on: abdominal aorta (AA) in ApoE/LDLR−/− mice; assay: MRI-based endothelium-dependent response to acetylcholine in abdominal aorta; assay type: in vivo; conditions: for AA volume change: intraperitoneal Ach, 25 minutes after administration; for change in AA volume: paradoxical vasoconstriction
Method: (§1) The experiments were performed using female ApoE/LDLR−/− mice of different ages: 4-, 6-, 8-, 12- and 28-week-old(19) in comparison to control young (8-week-old) mice (C57BL/6) without endothelial dysfunction. All mice (body weight 20-30 g) were housed under standard pathogen-free conditions (LD: 12/12, humidity: 60%, temperature: 23° C.).
(§2) MRI experiments were carried out using a 9.4 T scanner (BioSpec 94/20 USR, Bruker, Germany). During the experiment, mice were anesthetized using isoflurane (Aerrane, Baxter Sp. z o.o., Poland, 1.5% by volume) in an oxygen and air mixture (1:2). Cardiac activity, respiration rate and body temperature (maintained at 37° C., using circulating warm water) were monitored using Monitoring and Gating System (SA Inc., Stony Brook, N.Y., USA). Mice were imaged in the supine position to test endothelial function and permeability in various blood vessels.
(§3) Endothelium-dependent response to acetylcholine (Ach), expressed as changes in vessel volume, was assessed in the brachiocephalic artery (BCA) visible on the 3D image of the aortic arch (A) and in the abdominal aorta (AA) positioned on the sagittal view of the mouse (B). Assessment of vessel response to flow-mediated dilation (FMD), also expressed as changes in vessel volume, was performed in the femoral artery (FA), visible on the 3D image of the left hind limb (D). Pixels for which T1 had changed more than 50% after CA (Npx50) were marked in red on a representative cross-sectional image of blood vessels arising from the aortic arch (C).
To assess the sensitivity of endothelial dysfunction detection using the new contrast agent, being an invention, impaired endothelial function in ApoE/LDLR−/− mice was also assessed by other MRI-based techniques; detection of endothelium-dependent response to acetylcholine (FIG. 5) and measurement of increase in flow after short-term vessel occlusion (FMD, FIG. 6). As described in our recent publication(22), endothelium-dependent response to acetylcholine (Ach, FIG. 5B) in abdominal aorta (AA) is the most sensitive in vivo method to detect changes in endothelial phenotype. […]
Changes in the end-diastolic volume of brachiocephalic artery (A: BCA-ACH) and abdominal aorta (B: AA-ACH) 25 minutes after administration of acetylcholine in ApoE/LDLR−/− mice (white columns) of different ages: 4-week-old ApoE/LDLR−/− mice, 6-week-old ApoE/LDLR−/− mice, 8-week-old ApoE/LDLR−/− mice, 12-week-old ApoE/LDLR−/− mice, 28-week-old ApoE/LDLR−/− mice as compared to 8-week-old control C57BL/6 mice, (C57_8W, n=4, black columns). Statistics: one-way ANOVA followed by Tukey's post hoc test (normality was assessed using the Shapiro-Wilk test); *p<0.05, **p<0.01, ***p<0.001.

[2] = tested on: brachiocephalic artery (BCA) in ApoE/LDLR−/− mice; assay: MRI-based endothelium-dependent response to acetylcholine in brachiocephalic artery; assay type: in vivo
Method: as §1, §2, §3
To assess the sensitivity of endothelial dysfunction detection using the new contrast agent, being an invention, impaired endothelial function in ApoE/LDLR−/− mice was also assessed by other MRI-based techniques; detection of endothelium-dependent response to acetylcholine (FIG. 5) and measurement of increase in flow after short-term vessel occlusion (FMD, FIG. 6). […]

In the case of `CC(=O)OCC[N+](C)(C)C` [Ach, acetylcholine], the AA volume change ([1]; 4-week-old ApoE/LDLR−/− mice) was “about 23%”, the “change in AA volume” value ([1]; 12-week-old ApoE/LDLR−/− mice) was “about −8%” and the “change in AA volume” value ([1]; 28-week-old ApoE/LDLR−/− mice) was roughly −23%. The AA volume change ([1]; control mice (8-week-old C57BL/6)) was “about 34%”, the “changes in BCA volume” value ([2]; 4 to 8-week-old ApoE/LDLR−/− mice) was “approximately 10%” and the “volume change in the BCA” value ([2]; 8-week-old control mice (C57BL/6)) was 11.26%. For the same molecule, the BCA volume changes ([2]; 12-week-old ApoE/LDLR−/− mice) was “about 2%”.
